According to patent US20060019952A1, “Anti-viral therapeutics” (ELIXIR PHARMACEUTICALS, INC., priority 2004, published 2006):

Target: T1, GFP-hSIRT2 isoform 1 (Homo sapiens, UniProt Q8IXJ6)
T1 construct: expressed in transfected cells; host or cells: HeLa
T1 sequence (Q8IXJ6 1-389): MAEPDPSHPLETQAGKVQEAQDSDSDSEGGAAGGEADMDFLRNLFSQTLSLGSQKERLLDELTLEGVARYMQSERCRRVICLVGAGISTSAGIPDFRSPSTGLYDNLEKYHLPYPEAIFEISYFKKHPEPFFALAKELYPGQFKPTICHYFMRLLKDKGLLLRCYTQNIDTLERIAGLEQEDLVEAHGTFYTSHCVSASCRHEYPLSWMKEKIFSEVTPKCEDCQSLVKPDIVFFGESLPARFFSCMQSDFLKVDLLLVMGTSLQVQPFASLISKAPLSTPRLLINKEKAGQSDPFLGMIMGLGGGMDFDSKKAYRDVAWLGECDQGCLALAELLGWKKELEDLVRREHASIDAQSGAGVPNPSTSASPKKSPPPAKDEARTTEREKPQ
Assay: Acetylated tubulin staining in HeLa cells transfected with GFP-hSIRT2 isoform 1
Type: cell-based
Details: 50 μM compound with 1 μM TSA, added 36 hours post transfection, fixed next morning, versus DMSO
Protocol: HeLa cells were transfected with GFP-hSIRT2 isoform 1. At 36 hours post transfection 1 μM of TSA and either DMSO or 50 μM of Compound 8 was added. The next morning cells were fixed, permeabilized, and stained for acetylated tubulin.

NC(=O)COC(=O)c1sc2ccccc2c1Cl [Compound 8, 3-Chloro-benzo[b]thiophene-2-carboxylic acid carbamoylmethyl ester]
tubulin acetylation in cells expressing SIRT2 (staining for acetylated tubulin): more highly acetylated
